# Assay results from patent publication US20190119282A1, “IMIDAZOPYRIDAZINES USEFUL AS INHIBITORS OF THE PAR-2 SIGNALING PATHWAY” (Vertex Pharmaceuticals Incorporated, priority 2013, published 2019).
# Key:
# [1] = molecular target: T1, PAR2 (HT-29 cells, SLIGKV activation) (Homo sapiens, UniProt P55085); experiment: Ca FLIPR TETRA assay, ANTAGONIST mode, stimulation with 8 μM SLIGKV; format: cell-based; details: HT-29 cells
# T1 construct: host or cells: HT-29 cells
# T1 sequence (P55085 26-397): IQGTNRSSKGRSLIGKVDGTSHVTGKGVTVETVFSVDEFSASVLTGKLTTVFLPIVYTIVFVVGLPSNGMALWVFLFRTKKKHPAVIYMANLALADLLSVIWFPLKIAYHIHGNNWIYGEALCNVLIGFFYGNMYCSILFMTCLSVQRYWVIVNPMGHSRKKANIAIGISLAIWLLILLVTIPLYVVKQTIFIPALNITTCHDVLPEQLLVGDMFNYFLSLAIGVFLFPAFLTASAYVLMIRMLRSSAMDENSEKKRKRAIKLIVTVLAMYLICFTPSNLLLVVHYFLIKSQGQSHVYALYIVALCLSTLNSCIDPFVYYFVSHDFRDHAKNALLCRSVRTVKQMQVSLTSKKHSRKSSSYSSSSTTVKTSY
# In short: (§1)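 HT-29 cells grown overnight in 1% FBS McCoy's medium were loaded with calcium 5 dye (45 min 37 °C, 15 min r.t.). Compounds were added and Ca2+ read for direct activation, then after 30 min at r.t. cells were stimulated with 8 μM SLIGKV, 1 U/mL thrombin, 3.1 U/mL trypsin or 0.6 μM UTP (final).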
# [2] = molecular target: T2, PAR2 (HT-29 cells, trypsin activation) (Homo sapiens, UniProt P55085); experiment: Ca FLIPR TETRA assay, ANTAGONIST mode, stimulation with 3.1 U/mL trypsin; format: cell-based; details: HT-29 cells
# T2 construct: host or cells: HT-29 cells
# T2 sequence (P55085 26-397): T1 sequence (P55085 26-397)
# In short: as §1
# [3] = test system: Thrombin-stimulated Ca2+ response in HT-29 cells; experiment: Ca FLIPR TETRA assay, ANTAGONIST mode, stimulation with 1 U/mL Thrombin; format: cell-based, human; details: Homo sapiens, HT-29 cells
# In short: as §1
# [4] = test system: UTP-stimulated Ca2+ response in HT-29 cells; experiment: Ca FLIPR TETRA assay, ANTAGONIST mode, stimulation with 0.6 μM UTP; format: cell-based, human; details: Homo sapiens, HT-29 cells
# In short: as §1
# [5] = stimulation with 3.1 U/mL trypsin
# [6] = stimulation with 1 U/mL Thrombin
# [7] = antagonist mode, stimulation with 8 μM SLIGKV
# [8] = antagonist mode, stimulation with 3.1 U/mL trypsin
# [9] = antagonist mode, stimulation with 1 U/mL Thrombin
# [10] = antagonist mode, stimulation with 0.6 μM UTP
Structure (SMILES),IC50 ([1]; stimulation with 8 μM SLIGKV),"IC50 [2, 5]","IC50 [3, 6]",IC50 ([4]; stimulation with 0.6 μM UTP),"IC50 [1, 7]","IC50 [2, 8]","IC50 [3, 9]","IC50 [4, 10]",also measured
CC(C)c1cc(-c2ccc(F)cc2)nn2cc(C(=O)N3CCN(C(=O)C4(NC(=O)OC(C)(C)C)CCCCC4)[C@@H](C)C3)nc12 [Compound I-150],74 nM,230 nM,> 50000 nM,84000 nM,,,,,
"COC(=O)[C@@H]1CCN(C(=O)c2cn3nc(-c4ccc(F)cc4)cc(C)c3n2)C[C@@H]1C [Compound I-10, (3R,4R)-Methyl 1-(6-(4-fluorophenyl)-8-methylimidazo[1,2-b]pyridazine-2-carbonyl)-3-methylpiperidine-4-carboxylate]",430 nM,1100 nM,16000 nM,18000 nM,,,,,
CC1(C)C(=O)OCCN1C(=O)c1cn2nc(-c3ccc(F)cc3)cc(C(F)(F)F)c2n1 [Compound I-514],,,,,160 nM,315 nM,> 1000 nM,> 1000 nM,
"CC(C)c1cc(Cl)nn2cc(C(=O)N3CCN(C(=O)OC(C)(C)C)CC3(C)C)nc12 [Compound I-18, tert-Butyl 4-(6-chloro-8-isopropyl-imidazo[1,2-b]pyridazine-2-carbonyl)-3,3-dimethyl-piperazine-1-carboxylate]",2800 nM,6800 nM,20000 nM,18000 nM,,,,,
CC1(C)CN(C(=O)c2ncc[nH]2)CCN1C(=O)c1cn2nc(-c3ccc(F)cc3)cc(C(F)(F)F)c2n1 [Compound I-270],,,,,47.5 nM,71 nM,> 1000 nM,> 1000 nM,
"Cc1cc(-c2ccc(F)cc2)nn2cc(C(=O)N3CCCCCC3)nc12 [Compound I-6, Azepan-1-yl-[6-(4-fluorophenyl)-8-methyl-imidazo[1,2-b]pyridazin-2-yl]methanone]",1280 nM,2500 nM,10000 nM,11000 nM,,,,,
CC(C)c1cc(-c2ccc(F)cc2)nn2cc(C(=O)N3CCN(C(=O)[C@H](O)CC4CC4)[C@@H](C)C3)nc12 [Compound I-171],3 nM,5 nM,15000 nM,15000 nM,,,,,
Cc1ccc(-c2cc(C(C)C)c3nc(C(=O)N4CCNC(=O)C4(C)C)cn3n2)cc1F [Compound I-301],,,,,3 nM,3 nM,> 1000 nM,> 1000 nM,
CC(C)(C)c1cc(-c2ccc(F)cc2)nn2cc(C(=O)N3CCN(C(=O)C(C)(N)C(F)(F)F)CC3(C)C)nc12 (stereo not drawn) [Compound I-318],,,,,1.7 nM,2.2 nM,> 1000 nM,> 1000 nM,
Cc1ncc(C(=O)N2CCN(C(=O)c3cn4nc(-c5ccc(F)c(Cl)c5)cc(C(C)(C)C)c4n3)C(C)(C)C2)[nH]1 [Compound I-467],,,,,0.9 nM,2 nM,> 1000 nM,> 1000 nM,
Cc1nc(N2CCN(C(=O)c3cn4nc(-c5ccc(F)cc5)cc(C(C)(C)C)c4n3)C(C)(C)C2=O)c[nH]1 [Compound I-367],,,,,2.6 nM,4.2 nM,> 1000 nM,> 1000 nM,
CC(C)c1cc(-c2ccc(Cl)c(F)c2)nn2cc(C(=O)N3CCNC(=O)C3(C)C)nc12 [Compound I-354],,,,,1.2 nM,1.3 nM,> 1000 nM,> 1000 nM,
CC(C)(C)c1cc(-c2ccc(C(F)(F)F)cc2)nn2cc(C(=O)N3CCN(C(=O)[C@H]4C[C@@](C)(O)C4)CC3(C)C)nc12 [Compound I-463],,,,,1.8 nM,2.7 nM,> 1000 nM,> 1000 nM,
CC(C)c1cc(-c2ccc(F)cc2)nn2cc(C(=O)N3CCN(C(=O)CC4CC4)[C@@H](C)C3)nc12 [Compound I-140],14 nM,250 nM,15000 nM,14000 nM,,,,,
"CC(C)c1cc(C2CCCCC2)nn2cc(C(=O)N3CCN(C(=O)C4(O)CCC4)CC3(C)C)nc12 [Compound I-41, (6-Cyclohexyl-8-isopropyl-imidazo[1,2-b]pyridazin-2-yl)-[4-(1-hydroxycyclobutanecarbonyl)-2,2-dimethyl-piperazin-1-yl]methanone]",61 nM,280 nM,20000 nM,21000 nM,,,,,
CC(C)(C)c1cc(-c2ccc(Cl)cc2)nn2cc(C(=O)N3CCN(C(=O)[C@H]4C[C@H](C(=O)O)C4)CC3(C)C)nc12 [Compound I-570],,,,,,,,,"IC50 ([1]; antagonist mode, 8 μM SLIGKV): 1.6 nM; IC50 ([2]; antagonist mode, 3.1 U/mL trypsin): 2.2 nM; IC50 ([3]; antagonist mode, 1 U/mL Thrombin): > 1000 nM; IC50 ([4]; antagonist mode, 0.6 μM UTP): > 1000 nM"
"C=CC(=O)N1CCN(C(=O)c2cn3nc(-c4ccc(F)cc4)cc(C(C)C)c3n2)C[C@@H]1C [Compound I-17, 1-[(2S)-4-[6-(4-Fluorophenyl)-8-isopropyl-imidazo[1,2-b]pyridazine-2-carbonyl]-2-methyl-piperazin-1-yl]prop-2-en-1-one]",41 nM,780 nM,20000 nM,19000 nM,,,,,
CC(C)c1cc(-c2ccc(F)cc2)nn2cc(C(=O)N3CCN(C(=O)c4ccncc4)CC3(C)C)nc12 [Compound I-308],,,,,28 nM,33.5 nM,> 1000 nM,> 1000 nM,
CCc1cc(-c2ccc(F)cc2)nn2cc(C(=O)N3CCN(C(=O)CC4CCOCC4)[C@@H](C)C3)nc12 [Compound I-164],200 nM,2000 nM,54000 nM,54000 nM,,,,,
CC(C)c1cc(-c2ccc(C(F)(F)F)cc2)nn2cc(C(=O)N3CCN(C(=O)c4cccnn4)CC3(C)C)nc12 [Compound I-282],,,,,16 nM,14.2 nM,> 1000 nM,> 1000 nM,
C[C@@H]1CN(c2cc(-c3ccc(F)cc3)nn3cc(C(=O)N4CCN(C(=O)C(C)(C)O)CC4(C)C)nc23)C[C@H](C)O1 [Compound I-185],,,,,117 nM,157 nM,> 5000 nM,> 5000 nM,
Cc1cc(-c2ccc(F)cc2)nn2cc(C(=O)N3CCCC4(COC4)C3)nc12 [Compound I-61],13000 nM,19000 nM,26000 nM,38000 nM,,,,,
CC(C)c1cc(-c2ccc(F)cc2)nn2cc(C(=O)N3CCN(C(=O)c4c[nH]cn4)CC3(C)C)nc12 [Compound I-326],,,,,17 nM,12 nM,> 1000 nM,> 1000 nM,
"CC(C)(C)c1cc(-c2ccc(F)cc2)nn2cc(C(=O)N3CCN(C(=O)[C@H]4CC[C@H](C(=O)O)CC4)CC3(C)C)nc12 [Compound I-494, (1R,4R)-4-(4-(8-(tert-butyl)-6-(4-fluorophenyl)imidazo[1,2-b]pyridazine-2-carbonyl)-3,3-dimethylpiperazine-1-carbonyl)cyclohexane-1-carboxylic acid]",,,,,12.4 nM,13.9 nM,> 1000 nM,> 1000 nM,
CCOC(=O)/C=C/C(=O)N1CCN(C(=O)c2cn3nc(-c4ccc(F)cc4)cc(C(C)(C)C)c3n2)C(C)(C)C1 [Compound I-531],,,,,1.2 nM,2 nM,> 1000 nM,> 1000 nM,
Cc1cc(-c2cc(C(C)C)c3nc(C(=O)N4CCN(CO)C(=O)C4(C)C)cn3n2)ccc1F [Compound I-470],,,,,25.7 nM,31.7 nM,> 1000 nM,> 1000 nM,
CC1(C(=O)O)CCC(C(=O)N2CCN(C(=O)c3cn4nc(-c5ccc(Cl)cc5)cc(C(C)(C)C)c4n3)C(C)(C)C2)CC1 (stereo not drawn) [Compound I-534],,,,,0.08 nM,0.1 nM,> 1000 nM,> 1000 nM,
